≈ marks a conversion by molar mass, not a printed value.
Legend:
Plasmodium falciparum [1] = assay: (§1) Inhibitory concentration against chloroquine-sensitive Plasmodium falciparum D-8; assay type: functional, organism-based
Plasmodium falciparum [2] = assay: as §1; assay type: functional
Plasmodium falciparum [3] = assay: (§2) Inhibitory concentration against […] Plasmodium falciparum W-2; assay type: functional
Plasmodium falciparum [4] = assay: Inhibitory concentration against […] Plasmodium falciparum W2; assay type: functional
Plasmodium falciparum [5] = assay: as §2; assay type: functional, organism-based
[6] = Plasmodium falciparum, read-out: IC50
[7] = Plasmodium falciparum, read-out: IC10
[8] = Plasmodium falciparum, read-out: IC90

| SMILES | IC50 (Plasmodium falciparum [1]; [6]) [µg/mL] | IC10 (Plasmodium falciparum [2]; [7]) [µg/mL] | IC90 (Plasmodium falciparum [2]; [8]) [µg/mL] | IC10 (Plasmodium falciparum [3]; [7]) [µg/mL] | IC90 (Plasmodium falciparum [4]; [8]) [µg/mL] | IC10 (Plasmodium falciparum [3]) [µg/mL] | IC50 (Plasmodium falciparum [1]) [µg/mL] | IC50 (Plasmodium falciparum [5]) [µg/mL] | IC10 (Plasmodium falciparum [2]) [µg/mL] | IC90 (Plasmodium falciparum [2]) [µg/mL] | IC90 (Plasmodium falciparum [4]) [µg/mL] | IC50 (Plasmodium falciparum [5]; [6]) [µg/mL] |
| --- | --- | --- | --- | --- | --- | --- | --- | --- | --- | --- | --- | --- |
| C1CC2COC(C1)OO2 (stereo unspecified) | 2.45 (≈ 18.8 µM) | 1.34 (≈ 10.3 µM) | 4.47 (≈ 34.3 µM) | – | – | – | – | – | – | – | – | – |
| CCN(CC)CCCC(C)Nc1ccnc2cc(Cl)ccc12 (stereo unspecified) [CHLOROQUINE] | – | 0.00201 (≈ 0.00628 µM) | 0.00361 (≈ 0.0113 µM) | 0.0527 (≈ 0.165 µM) | 0.0931 (≈ 0.291 µM) | – | – | – | – | – | – | – |
| COC1CCCC(OO)CO1 (stereo in doubt) | – | – | – | – | – | 11.4131 (≈ 70.4 µM) | 10.0532 (≈ 62 µM) | 15.45681 (≈ 95.3 µM) | 2.65375 (≈ 16.4 µM) | 38.08448 (≈ 235 µM) | 20.93322 (≈ 129 µM) | – |
| C[C@@H]1CC[C@H]2[C@@H](C)C(=O)O[C@@H]3O[C@@]4(C)CC[C@@H]1[C@]32OO4 [ARTEMISININ] | 0.00083 (≈ 0.00294 µM) | 0.00032 (≈ 0.00113 µM) | 0.00213 (≈ 0.00754 µM) | 0.00049 (≈ 0.00174 µM) | 0.00105 (≈ 0.00372 µM) | – | – | – | – | – | – | 0.00072 (≈ 0.00255 µM) |
| OC(c1cc(C(F)(F)F)nc2c(C(F)(F)F)cccc12)C1CCCCN1 (stereo unspecified) [MEFLOQUINE] | 0.00686 (≈ 0.0181 µM) | 0.00122 (≈ 0.00322 µM) | 0.0385 (≈ 0.102 µM) | 0.00117 (≈ 0.00309 µM) | 0.00373 (≈ 0.00986 µM) | – | – | – | – | – | – | 0.00209 (≈ 0.00552 µM) |
| COC1CCCC(OO)CO1 (single isomer, unassigned; isomer A) | 7.49 (≈ 46.2 µM) | 2.46 (≈ 15.2 µM) | 22.8 (≈ 141 µM) | – | 12.8 (≈ 78.8 µM) | 3.33249 (≈ 20.5 µM) | – | 6.52488 (≈ 40.2 µM) | – | – | – | – |
